{"source": "patent US20020162794A1", "about": "“Anaerobic digestion” (priority 2001, published 2002)", "key": {"[1]": {"system": "mixed culture from a publicly owned anaerobic digester (domestic sewage sludge)", "test": "Chemical Oxygen Demand (COD) of batch anaerobic digester reactors", "settings": "for COD Concentration: 7/1/99 run (Tables 5, 6)", "method": "Two tests were run in which sodium formate in concentrations ranging from a few parts per million (ppm) up to ten percent (10%) on a mass basis were added to samples taken from a publicly owned anaerobic digester. The samples were first cultured in laboratory sized batch reactors. The twelve batch reactors were then sampled, and studied for periods of up to fifty-five days. The process variables that were monitored included COD (Chemical Oxygen Demand), TS (Total Solids), TVS (Total Volatile Solids) and the pH of the culture. Time and the initial sodium formate concentration level were the independent variables. Finally measurements were also made of the bacterial counts at the beginning and at the end of the fifty five day period. These experimental observations permitted partial identifications of the predominant bacterial colonies still viable in each of the twelve reactors used for each trial of the laboratory study.\nChemical Oxygen Demand (COD) measurements\nTo perform this measurement, a 5 ml of the sample from each of the 12 reactors is taken and diluted 10-fold to 50 ml. 5 ml of the now diluted sample is again diluted 10 fold to 50 ml. This double dilution represents a 100-fold dilution of the original sample. 2 ml of these diluted samples are put into standard COD test tubes. The test tubes are closed and shaken vigorously. The 13 (COD) test tubes (one is a control) are then heated to 150 deg. C for two hours. The UV spectrometer is calibrated by first analyzing the test tube with pure distilled water as the zero COD or control sample.\nThe sample test tubes are then analyzed for COD using UV spectrometer after inputting the method number and adjusting the frequency of UV rays to correspond to a sample with a high organic loading range. The readings that were obtained in units of mg/liter are multiplied by 100 to correct for the dilution procedure and to get COD concentration level for the original sample. COD is indicative of the organic substrate load level in the wastewater being treated or tested.\nMunicipal sludge from the city of Lubbock, Wastewater Treatment Plant was digested in 12 batch digesters. Using twelve batch reactors allowed the collection of control reactors data (i.e., no formate in the reactors) in triplicate, titration studies of increasing formate concentration, and duplicates/triplicates of varying formate concentration. Experiments were conducted in the laboratories of Texas Tech University.\nThe substrate taken was 2 parts of 50 g/liter sucrose solution mixed with 1 part of digested municipal sludge which acts as the seed material for incorporation of microbes into the reactors. The experiments were started with the following protocol. [drawing 1]"}, "[2]": {"system": "bacteria of the mixed anaerobic digester culture", "test": "Bacterial colony counts from formate bioreactors", "type": "cell-based", "method": "Procedure for Bacterial Colony Counts from Formate Bioreactors\n1. Collect samples from each bioreactor in sterile 30-mL glass vials with screw caps.\n2. All subsequent operations are performed aseptically in the anaerobic chamber under an atmosphere of 3% H2/7% CO2/90% N2.\n4. Seed 0.1-mL samples form the dilution blanks into tryptic soy agar plates.\n5. Inoculate three plates for each dilution. Final dilutions on the plates are 10^−3 and 10^−4\n6. Incubate all plates anaerobically for 3-4 days at room temperature (approximately 25° C.) prior to manually counting the numbers of colonies on each plate.\n7. Calculate the numbers of colony-forming units (CFU) per ml in the original samples."}}, "note": "Where “and” joins values, the source holds several entries; their conditions need not be identical. Equal values may be shown once.", "data": [{"smiles": "O=C[O-].[Na+]", "note": "[sodium formate]", "values": [{"measurement": "COD Concentration", "setting": "[1]; 5000 ppm, 55 days", "value": 34.3, "unit": "g/L"}, {"measurement": "COD Concentration", "setting": "[1]; 10000 ppm, 0 Day (with formate addition)", "value": "58.2 g/L and 69 g/L and 36.7 g/L"}, {"measurement": "COD Concentration", "setting": "[1]; 10000 ppm, 7 Day", "value": "56.4 g/L and 44.3 g/L"}, {"measurement": "COD Concentration", "setting": "[1]; 10000 ppm, 1 days, listed as Format", "value": "50.7 g/L and 52.3 g/L and 45.5 g/L"}, {"measurement": "COD Concentration", "setting": "[1]; 10000 ppm, 1 days, listed as Formate", "value": 45.5, "unit": "g/L"}, {"measurement": "COD Concentration", "setting": "[1]; 10000 ppm, 4 days", "value": "47.3 g/L and 43.5 g/L and 43.2 g/L"}, {"measurement": "COD Concentration", "setting": "[1]; 10000 ppm, 9 days", "value": "49.9 g/L and 51.6 g/L and 43.7 g/L"}, {"measurement": "COD Concentration", "setting": "[1]; 10000 ppm, 16 days", "value": "38.2 g/L and 32 g/L and 40 g/L"}, {"measurement": "COD Concentration", "setting": "[1]; 10000 ppm, 24 days", "value": "40.8 g/L and 37.1 g/L and 40 g/L"}, {"measurement": "COD Concentration", "setting": "[1]; 10000 ppm, 55 days", "value": "49.7 g/L and 38.5 g/L and 32 g/L"}, {"measurement": "COD Concentration", "setting": "[1]; 100000 ppm, 0 Day (with formate addition)", "value": "49 g/L and 64.4 g/L"}, {"measurement": "COD Concentration", "setting": "[1]; 100000 ppm, 7 Day", "value": "74.9 g/L and 94.5 g/L"}, {"measurement": "COD Concentration", "setting": "[1]; 100000 ppm, 1 days, listed as Format", "value": "121 g/L and 165 g/L"}, {"measurement": "COD Concentration", "setting": "[1]; 100000 ppm, 1 days, listed as Formate", "value": "120.7 g/L and 165 g/L"}, {"measurement": "COD Concentration", "setting": "[1]; 100000 ppm, 4 days", "value": "65.5 g/L and 87.1 g/L"}, {"measurement": "COD Concentration", "setting": "[1]; 100000 ppm, 9 days", "value": "71 g/L and 89.6 g/L"}, {"measurement": "COD Concentration", "setting": "[1]; 100000 ppm, 16 days", "value": "57.5 g/L and 67.1 g/L"}, {"measurement": "COD Concentration", "setting": "[1]; 100000 ppm, 24 days", "value": "41.5 g/L and 25.6 g/L"}, {"measurement": "COD Concentration", "setting": "[1]; 100000 ppm, 55 days", "value": "64.8 g/L and 73.9 g/L"}, {"measurement": "% (reduction of average COD versus 0 ppm)", "setting": "[1]; 7/1/99 run, 1000 ppm", "value": 0.72, "unit": "%"}, {"measurement": "COD Concentration, Average", "setting": "[1]; 7/1/99 run, 1000 ppm, average of 3 reactors, 0 Day", "value": 53.8, "unit": "g/L"}, {"measurement": "COD Concentration, Average", "setting": "[1]; 7/1/99 run, 1000 ppm, average of 3 reactors, 7 Day", "value": 61.43, "unit": "g/L"}, {"measurement": "COD Concentration, Average", "setting": "[1]; 7/1/99 run, 1000 ppm, average of 3 reactors, 1 days", "value": "58.3 g/L and 56.3 g/L"}, {"measurement": "COD Concentration, Average", "setting": "[1]; 7/1/99 run, 1000 ppm, average of 3 reactors, 4 days", "value": 51.9, "unit": "g/L"}, {"measurement": "COD Concentration, Average", "setting": "[1]; 7/1/99 run, 1000 ppm, average of 3 reactors, 9 days", "value": 50.37, "unit": "g/L"}, {"measurement": "COD Concentration, Average", "setting": "[1]; 7/1/99 run, 1000 ppm, average of 3 reactors, 16 days", "value": 36.03, "unit": "g/L"}, {"measurement": "COD Concentration, Average", "setting": "[1]; 7/1/99 run, 1000 ppm, average of 3 reactors, 24 days", "value": 36.6, "unit": "g/L"}, {"measurement": "COD Concentration, Average", "setting": "[1]; 7/1/99 run, 1000 ppm, average of 3 reactors, 55 days", "value": 38.87, "unit": "g/L"}, {"measurement": "% (reduction of average COD versus 0 ppm)", "setting": "[1]; 7/1/99 run, 5000 ppm", "value": 10.3, "unit": "%"}, {"measurement": "COD Concentration, average over all sampling days (Averag)", "setting": "[1]; 7/1/99 run, 5000 ppm, 0 to 55 days", "value": 43.5, "unit": "g/L"}, {"measurement": "% (reduction of average COD versus 0 ppm)", "setting": "[1]; 7/1/99 run, 10000 ppm", "value": 5.79, "unit": "%"}, {"measurement": "COD Concentration, Average", "setting": "[1]; 7/1/99 run, 10000 ppm, average of 3 reactors, 0 Day", "value": 54.63, "unit": "g/L"}, {"measurement": "COD Concentration, Average", "setting": "[1]; 7/1/99 run, 10000 ppm, average of 3 reactors, 7 Day", "value": 52.37, "unit": "g/L"}, {"measurement": "COD Concentration, Average", "setting": "[1]; 7/1/99 run, 10000 ppm, average of 3 reactors, 1 days", "value": 49.5, "unit": "g/L"}, {"measurement": "COD Concentration, Average", "setting": "[1]; 7/1/99 run, 10000 ppm, average of 3 reactors, 4 days", "value": 44.67, "unit": "g/L"}, {"measurement": "COD Concentration, Average", "setting": "[1]; 7/1/99 run, 10000 ppm, average of 3 reactors, 9 days", "value": 48.4, "unit": "g/L"}, {"measurement": "COD Concentration, Average", "setting": "[1]; 7/1/99 run, 10000 ppm, average of 3 reactors, 16 days", "value": 36.73, "unit": "g/L"}, {"measurement": "COD Concentration, Average", "setting": "[1]; 7/1/99 run, 10000 ppm, average of 3 reactors, 24 days", "value": 39.3, "unit": "g/L"}, {"measurement": "COD Concentration, Average", "setting": "[1]; 7/1/99 run, 10000 ppm, average of 3 reactors, 55 days", "value": 40.07, "unit": "g/L"}, {"measurement": "% (reduction of average COD versus 0 ppm)", "setting": "[1]; 7/1/99 run, 100000 ppm", "value": "−56.1", "unit": "%"}, {"measurement": "COD Concentration, Average", "setting": "[1]; 7/1/99 run, 100000 ppm, average of 2 reactors, 0 Day", "value": 56.7, "unit": "g/L"}, {"measurement": "COD Concentration, Average", "setting": "[1]; 7/1/99 run, 100000 ppm, average of 2 reactors, 7 Day", "value": 84.7, "unit": "g/L"}, {"measurement": "COD Concentration, Average", "setting": "[1]; 7/1/99 run, 100000 ppm, average of 2 reactors, 1 days", "value": 143, "unit": "g/L"}, {"measurement": "COD Concentration, Average", "setting": "[1]; 7/1/99 run, 100000 ppm, average of 2 reactors, 4 days", "value": 76.3, "unit": "g/L"}, {"measurement": "COD Concentration, Average", "setting": "[1]; 7/1/99 run, 100000 ppm, average of 2 reactors, 9 days", "value": 80.3, "unit": "g/L"}, {"measurement": "COD Concentration, Average", "setting": "[1]; 7/1/99 run, 100000 ppm, average of 2 reactors, 16 days", "value": 62.3, "unit": "g/L"}, {"measurement": "COD Concentration, Average", "setting": "[1]; 7/1/99 run, 100000 ppm, average of 2 reactors, 24 days", "value": 33.55, "unit": "g/L"}, {"measurement": "COD Concentration, Average", "setting": "[1]; 7/1/99 run, 100000 ppm, average of 2 reactors, 55 days", "value": 69.35, "unit": "g/L"}, {"measurement": "COD reduction due to the formate (FIG. 2)", "setting": "[1]; 25 to 8,750 ppm, 0, 15 and 30 days", "value": "~10", "unit": "%"}, {"measurement": "average percent range in improvement of measured COD levels", "setting": "[1]; domestic sewage", "value": "≤ 12", "unit": "%"}, {"measurement": "increase in COD reduction (FIG. 3)", "setting": "[1]; from 0 formate up to about 5,000-7,000 ppm", "value": "about 10%"}, {"measurement": "bacterial counts", "setting": "[2]; 100 ppm to 100,000 ppm, lower counts at higher concentrations", "value": "> 10^5 CFU per milliliter"}, {"measurement": "Colony forming units per mL", "setting": "[2]; 5000 ppm, reactor 3", "value": "0.59 × 10^7 per mL"}, {"measurement": "Colony forming units per mL", "setting": "[2]; 10000 ppm, single reactors (2, 4, 5)", "value": "0.26 × 10^7 per mL and 0.19 × 10^7 per mL and 0.38 × 10^7 per mL"}]}]}
